Reference: ChEMBL document CHEMBL4004803, “Syntheses and antibacterial activity of soluble 9-bromo substituted indolizinoquinoline-5,12-dione derivatives” (Eur J Med Chem, 2017)
In brackets after ≈: the same amount, converted by molar mass.

Legend:
Assay type in all cases: functional
Staphylococcus aureus [1] = assay: Antibacterial activity against methicillin-resistant Staphylococcus aureus 110910-2 clinical isolate after 20 to 24 hrs by two-fold microdilution method
Staphylococcus aureus [2] = assay: Antibacterial activity against methicillin-resistant Staphylococcus aureus 110325 clinical isolate after 20 to 24 hrs by two-fold microdilution method
Staphylococcus aureus [3] = assay: Antibacterial activity against methicillin-resistant Staphylococcus aureus 1212221 clinical isolate after 20 to 24 hrs by two-fold microdilution method
Staphylococcus aureus [4] = assay: Antibacterial activity against methicillin-resistant Staphylococcus aureus 20339 clinical isolate after 20 to 24 hrs by two-fold microdilution method
Staphylococcus aureus [5] = assay: Antibacterial activity against methicillin-resistant Staphylococcus aureus ATCC 43300 after 20 to 24 hrs by two-fold microdilution method
Staphylococcus aureus [6] = assay: Antibacterial activity against methicillin-resistant Staphylococcus aureus 724244 clinical isolate after 20 to 24 hrs by two-fold microdilution method
Staphylococcus aureus [7] = assay: Antibacterial activity against methicillin-resistant Staphylococcus aureus 112047 clinical isolate after 20 to 24 hrs by two-fold microdilution method
Staphylococcus aureus [8] = assay: Antibacterial activity against methicillin-resistant Staphylococcus aureus 1025022 clinical isolate after 20 to 24 hrs by two-fold microdilution method
Staphylococcus aureus [9] = assay: Antibacterial activity against methicillin-resistant Staphylococcus aureus 125025 clinical isolate after 20 to 24 hrs by two-fold microdilution method
Staphylococcus aureus [10] = assay: Antibacterial activity against methicillin-resistant Staphylococcus aureus 130031 clinical isolate after 20 to 24 hrs by two-fold microdilution method
Staphylococcus aureus [11] = assay: Antibacterial activity against methicillin-resistant Staphylococcus aureus 1024004-2 clinical isolate after 20 to 24 hrs by two-fold microdilution method
Staphylococcus aureus [12] = assay: Antibacterial activity against methicillin-resistant Staphylococcus aureus 1211026 clinical isolate after 20 to 24 hrs by two-fold microdilution method
Staphylococcus aureus [13] = assay: Antibacterial activity against methicillin-resistant Staphylococcus aureus 20106-2 clinical isolate after 20 to 24 hrs by two-fold microdilution method
Enterococcus faecalis = assay: Antibacterial activity against Enterococcus faecalis ATCC 29212 after 20 to 24 hrs by two-fold microdilution method
Escherichia coli = assay: Antibacterial activity against Escherichia coli ATCC 25922 after 20 to 24 hrs by two-fold microdilution method
Staphylococcus aureus [14] = assay: Antibacterial activity against methicillin-resistant Staphylococcus aureus 10281-2 clinical isolate after 20 to 24 hrs by two-fold microdilution method
Staphylococcus aureus [15] = assay: Antibacterial activity against methicillin-resistant Staphylococcus aureus 523005 clinical isolate after 20 to 24 hrs by two-fold microdilution method
Staphylococcus aureus [16] = assay: Antibacterial activity against methicillin-resistant Staphylococcus aureus 112106 clinical isolate after 20 to 24 hrs by two-fold microdilution method
Staphylococcus aureus [17] = assay: Antibacterial activity against methicillin-resistant Staphylococcus aureus 1101016 clinical isolate after 20 to 24 hrs by two-fold microdilution method
Staphylococcus aureus [18] = assay: Antibacterial activity against methicillin-resistant Staphylococcus aureus 502025 clinical isolate after 20 to 24 hrs by two-fold microdilution method
Staphylococcus aureus [19] = assay: Antibacterial activity against methicillin-resistant Staphylococcus aureus 305026 clinical isolate after 20 to 24 hrs by two-fold microdilution method
Staphylococcus aureus [20] = assay: Antibacterial activity against methicillin-resistant Staphylococcus aureus 1212057-1 clinical isolate after 20 to 24 hrs by two-fold microdilution method
Staphylococcus aureus [21] = assay: Antibacterial activity against methicillin-resistant Staphylococcus aureus 1108204 clinical isolate after 20 to 24 hrs by two-fold microdilution method
Staphylococcus aureus [22] = assay: Antibacterial activity against methicillin-resistant Staphylococcus aureus 11819 clinical isolate after 20 to 24 hrs by two-fold microdilution method
[23] = system: Staphylococcus epidermidis; assay: Antibacterial activity against Staphylococcus epidermidis ATCC 12228 after 20 to 24 hrs by two-fold microdilution method
Staphylococcus aureus [24] = assay: Antibacterial activity against methicillin-resistant Staphylococcus aureus 212014 clinical isolate after 20 to 24 hrs by two-fold microdilution method
[25] = system: Staphylococcus haemolyticus; assay: Antibacterial activity against Staphylococcus haemolyticus CICC 10373 after 20 to 24 hrs by two-fold microdilution method
Staphylococcus aureus [26] = assay: Antibacterial activity against methicillin-resistant Staphylococcus aureus 1107027 clinical isolate after 20 to 24 hrs by two-fold microdilution method
Streptococcus pneumoniae = assay: Antibacterial activity against Streptococcus pneumoniae ATCC 6305 after 20 to 24 hrs by two-fold microdilution method
Staphylococcus aureus [27] = assay: Antibacterial activity against methicillin-resistant Staphylococcus aureus 1103006 clinical isolate after 20 to 24 hrs by two-fold microdilution method
Staphylococcus aureus [28] = assay: Antibacterial activity against methicillin-resistant Staphylococcus aureus 123152 clinical isolate after 20 to 24 hrs by two-fold microdilution method
Staphylococcus aureus [29] = assay: Antibacterial activity against methicillin-resistant Staphylococcus aureus 519238 clinical isolate after 20 to 24 hrs by two-fold microdilution method
Staphylococcus aureus [30] = assay: Antibacterial activity against methicillin-resistant Staphylococcus aureus 531026 clinical isolate after 20 to 24 hrs by two-fold microdilution method
Staphylococcus aureus [31] = assay: Antibacterial activity against methicillin-resistant Staphylococcus aureus 19950 clinical isolate after 20 to 24 hrs by two-fold microdilution method
Staphylococcus aureus [32] = assay: Antibacterial activity against methicillin-resistant Staphylococcus aureus 921026 clinical isolate after 20 to 24 hrs by two-fold microdilution method
Staphylococcus aureus [33] = assay: Antibacterial activity against methicillin-resistant Staphylococcus aureus 1215028 clinical isolate after 20 to 24 hrs by two-fold microdilution method
Staphylococcus aureus [34] = assay: Antibacterial activity against methicillin-resistant Staphylococcus aureus 121026 clinical isolate after 20 to 24 hrs by two-fold microdilution method
Staphylococcus aureus [35] = assay: Antibacterial activity against methicillin-resistant Staphylococcus aureus 103054 clinical isolate after 20 to 24 hrs by two-fold microdilution method
Staphylococcus aureus [36] = assay: Antibacterial activity against methicillin-resistant Staphylococcus aureus 1106003 clinical isolate after 20 to 24 hrs by two-fold microdilution method
Staphylococcus aureus [37] = assay: Antibacterial activity against methicillin-resistant Staphylococcus aureus 503025 clinical isolate after 20 to 24 hrs by two-fold microdilution method
Staphylococcus aureus [38] = assay: Antibacterial activity against methicillin-resistant Staphylococcus aureus 625032 clinical isolate after 20 to 24 hrs by two-fold microdilution method
Staphylococcus aureus [39] = assay: Antibacterial activity against methicillin-resistant Staphylococcus aureus 118038 clinical isolate after 20 to 24 hrs by two-fold microdilution method
Staphylococcus aureus [40] = assay: Antibacterial activity against methicillin-resistant Staphylococcus aureus 122820-2 clinical isolate after 20 to 24 hrs by two-fold microdilution method
Staphylococcus aureus [41] = assay: Antibacterial activity against methicillin-resistant Staphylococcus aureus 912014 clinical isolate after 20 to 24 hrs by two-fold microdilution method
Staphylococcus aureus [42] = assay: Antibacterial activity against methicillin-resistant Staphylococcus aureus 110432 clinical isolate after 20 to 24 hrs by two-fold microdilution method
Staphylococcus aureus [43] = assay: Antibacterial activity against methicillin-resistant Staphylococcus aureus 219236 clinical isolate after 20 to 24 hrs by two-fold microdilution method
Staphylococcus aureus [44] = assay: Antibacterial activity against methicillin-resistant Staphylococcus aureus 109244 clinical isolate after 20 to 24 hrs by two-fold microdilution method

For `O=C1c2cccnc2C(=O)c2c1c(C(=O)OCCCCCCN1CCCCC1)c1ccc(Br)cn21`, the MIC (Staphylococcus aureus [1]) was 0.016 µg/mL (≈ 0.0297 µM), the MIC (Staphylococcus aureus [2]) was 0.031 µg/mL (≈ 0.0576 µM) and the MIC (Staphylococcus aureus [3]) was 0.031 µg/mL (≈ 0.0576 µM). It also gave an MIC (Staphylococcus aureus [4]) of 0.125 µg/mL (≈ 0.232 µM), an MIC (Staphylococcus aureus [5]) of 0.063 µg/mL (≈ 0.117 µM) and an MIC (Staphylococcus aureus [6]) of 0.031 µg/mL (≈ 0.0576 µM). For the same compound, the MIC (Staphylococcus aureus [7]) was 0.031 µg/mL (≈ 0.0576 µM), the MIC (Staphylococcus aureus [8]) was 0.063 µg/mL (≈ 0.117 µM) and the MIC (Staphylococcus aureus [9]) was 0.125 µg/mL (≈ 0.232 µM). The MIC (Staphylococcus aureus [10]) was 0.125 µg/mL (≈ 0.232 µM), the MIC (Staphylococcus aureus [11]) was 0.063 µg/mL (≈ 0.117 µM) and the MIC (Staphylococcus aureus [12]) was 0.031 µg/mL (≈ 0.0576 µM). For the same compound, the MIC (Staphylococcus aureus [13]) was 0.063 µg/mL (≈ 0.117 µM), the MIC (Enterococcus faecalis) was 0.125 µg/mL (≈ 0.232 µM) and the MIC (Escherichia coli) was 2 µg/mL (≈ 3.71 µM). It also gave an MIC (Staphylococcus aureus [14]) of 0.063 µg/mL (≈ 0.117 µM), an MIC (Staphylococcus aureus [15]) of 0.125 µg/mL (≈ 0.232 µM) and an MIC (Staphylococcus aureus [16]) of 0.063 µg/mL (≈ 0.117 µM). For the same compound, the MIC (Staphylococcus aureus [17]) was 0.063 µg/mL (≈ 0.117 µM), the MIC (Staphylococcus aureus [18]) was 0.063 µg/mL (≈ 0.117 µM) and the MIC (Staphylococcus aureus [19]) was no more than 0.0078 µg/mL. The MIC (Staphylococcus aureus [20]) was 0.016 µg/mL (≈ 0.0297 µM), the MIC (Staphylococcus aureus [21]) was 0.063 µg/mL (≈ 0.117 µM) and the MIC (Staphylococcus aureus [22]) was 0.063 µg/mL (≈ 0.117 µM). The MIC [23] was no more than 0.0078 µg/mL, the MIC (Staphylococcus aureus [24]) was no more than 0.0078 µg/mL and the MIC [25] was 0.125 µg/mL (≈ 0.232 µM). The MIC (Staphylococcus aureus [26]) was 0.063 µg/mL (≈ 0.117 µM), the MIC (Streptococcus pneumoniae) was 0.5 µg/mL (≈ 0.929 µM) and the MIC (Staphylococcus aureus [27]) was greater than 16 µg/mL. It also gave an MIC (Staphylococcus aureus [28]) of 0.125 µg/mL (≈ 0.232 µM), an MIC (Staphylococcus aureus [29]) of 0.125 µg/mL (≈ 0.232 µM) and an MIC (Staphylococcus aureus [30]) of 0.063 µg/mL (≈ 0.117 µM). For the same compound, the MIC (Staphylococcus aureus [31]) was 0.063 µg/mL (≈ 0.117 µM), the MIC (Staphylococcus aureus [32]) was 0.063 µg/mL (≈ 0.117 µM) and the MIC (Staphylococcus aureus [33]) was 0.063 µg/mL (≈ 0.117 µM). It also gave an MIC (Staphylococcus aureus [34]) of 0.031 µg/mL (≈ 0.0576 µM), an MIC (Staphylococcus aureus [35]) of 0.031 µg/mL (≈ 0.0576 µM) and an MIC (Staphylococcus aureus [36]) of 16 µg/mL (≈ 29.7 µM). The MIC (Staphylococcus aureus [37]) was 0.125 µg/mL (≈ 0.232 µM), the MIC (Staphylococcus aureus [38]) was 0.25 µg/mL (≈ 0.464 µM) and the MIC (Staphylococcus aureus [39]) was 0.063 µg/mL (≈ 0.117 µM). The MIC (Staphylococcus aureus [40]) was 0.063 µg/mL (≈ 0.117 µM), the MIC (Staphylococcus aureus [41]) was 0.063 µg/mL (≈ 0.117 µM) and the MIC (Staphylococcus aureus [42]) was 0.063 µg/mL (≈ 0.117 µM). The MIC (Staphylococcus aureus [43]) was no more than 0.0078 µg/mL and the MIC (Staphylococcus aureus [44]) was 0.031 µg/mL (≈ 0.0576 µM).
